In patent US20240082181A1, “Method for Treating Blood Cancers” (Lantern Pharma Inc., priority 2021, published 2024):

Columns and labels:
Assay type in all cases: cell-based
SR = experiment: Cell viability, sulforhodamine B (SRB) assay (48 h); conditions: Homo sapiens, Anaplastic large cell lymphoma, assay duration 48 hours, read-out: LP-284 IC50
Method: (§1) The sensitivity and selectivity of Compound 1 (with positive optical chirality) was assessed using a panel of human blood cell lines. The cell lines used in this Example are shown below and plotted in FIG. 1. The cells were inoculated into 96 well plates at various numbers of cells/well depending on the doubling time of the cell line for 24 hours. Then these cells were treated by Compound 1 at 5˜8 different doses and DMSO vehicle controls. After another 48 or 72 hour incubation, the number viable cells/wells were measured by the sulforhodamine B (SRB) assay (48 h) or the Promega Celltiter Fluor Cell Viability (72 h). IC50 values were then calculated based on normalized cell counts at different Compound 1 doses. Anti-proliferative activity was determined by cell viability measurements.

CCRFCEM = experiment: as above; conditions: Homo sapiens, CCRF-CEM, Acute Lymphoblastic Leukemia, assay duration 48 hours, read-out: LP-284 IC50
Method: as §1

HL60TB = experiment: as above; conditions: Homo sapiens, HL-60, Acute Myeloid Leukemia, assay duration 48 hours, read-out: LP-284 IC50
Method: as §1

RPMI8226 = experiment: as above; conditions: Homo sapiens, RPMI-8226; RPMI8226, Multiple Myeloma, assay duration 48 hours; read-out: LP-284 IC50
Method: as §1

MOLT4 = experiment: as above; conditions: Homo sapiens, MOLT-4; MOLT4, Acute Lymphoblastic Leukemia, assay duration 48 hours; read-out: LP-284 IC50
Method: as §1

SUDHL6 = experiment: Cell viability, Promega Celltiter Fluor (72 h); conditions: Homo sapiens, SU-DHL-6; SUDHL6, Double-Hit Lymphoma, assay duration 72 hours; read-out: LP-284 IC50
Method: as §1

U937 = experiment: Cell viability, Promega Celltiter Fluor (72 h); conditions: Homo sapiens, U-937; U937, Acute Myeloid Leukemia, assay duration 72 hours; read-out: LP-284 IC50
Method: as §1

REC1 = experiment: Cell viability, Promega Celltiter Fluor (72 h); conditions: Homo sapiens; REC1, Mantle Cell Lymphoma, assay duration 72 hours; read-out: LP-284 IC50
Method: as §1

JEKO1 = experiment: Cell viability, Promega Celltiter Fluor (72 h); conditions: Homo sapiens, JeKo-1; JEKO1, Mantle Cell Lymphoma, assay duration 72 hours; read-out: LP-284 IC50
Method: as §1

K562R = experiment: Cell viability, Promega Celltiter Fluor (72 h); conditions: Homo sapiens, K-562R, Chronic Myeloid Leukemia, assay duration 72 hours, read-out: LP-284 IC50
Method: as §1

SUPB15 = experiment: Cell viability, Promega Celltiter Fluor (72 h); conditions: Homo sapiens, SUP-B15; SUPB15, Acute Lymphoblastic Leukemia, assay duration 72 hours; read-out: LP-284 IC50
Method: as §1

THP1 = experiment: Cell viability, Promega Celltiter Fluor (72 h); conditions: Homo sapiens, THP-1; THP1, Acute Myeloid Leukemia, assay duration 72 hours; read-out: LP-284 IC50
Method: as §1

MINO = experiment: Cell viability, Promega Celltiter Fluor (72 h); conditions: Homo sapiens, Mantle Cell Lymphoma, assay duration 72 hours, read-out: LP-284 IC50
Method: as §1

REH = experiment: Cell viability, Promega Celltiter Fluor (72 h); conditions: Homo sapiens, Acute Lymphoblastic Leukemia, assay duration 72 hours, read-out: LP-284 IC50
Method: as §1

AML193 = experiment: Cell viability, Promega Celltiter Fluor (72 h); conditions: Homo sapiens; AML193, Acute Myeloid Leukemia, assay duration 72 hours; read-out: LP-284 IC50
Method: as §1

Z138 = experiment: Cell viability, Promega Celltiter Fluor (72 h); conditions: Homo sapiens, Z-138; Z138, Mantle Cell Lymphoma, assay duration 72 hours; read-out: LP-284 IC50
Method: as §1

JVM2 = experiment: Cell viability, Promega Celltiter Fluor (72 h); conditions: Homo sapiens, JVM-2; JVM2, Mantle Cell Lymphoma, assay duration 72 hours; read-out: LP-284 IC50
Method: as §1

KU812 = experiment: Cell viability, Promega Celltiter Fluor (72 h); conditions: Homo sapiens; KU812, Chronic Myeloid Leukemia, assay duration 72 hours; read-out: LP-284 IC50
Method: as §1

MAVER1 = experiment: Cell viability, Promega Celltiter Fluor (72 h); conditions: Homo sapiens; MAVER1, Mantle Cell Lymphoma, assay duration 72 hours; read-out: LP-284 IC50
Method: as §1

CA46 = experiment: Cell viability, Promega Celltiter Fluor (72 h); conditions: Homo sapiens; CA46, Burkitt's Lymphoma, assay duration 72 hours; read-out: LP-284 IC50
Method: as §1

NCIH929 = experiment: Cell viability, Promega Celltiter Fluor (72 h); conditions: Homo sapiens, NCI-H929; NCIH929, Multiple Myeloma, assay duration 72 hours; read-out: LP-284 IC50
Method: as §1

K562 = experiment: Cell viability, Promega Celltiter Fluor (72 h); conditions: Homo sapiens; K562, Chronic Myeloid Leukemia, assay duration 72 hours; read-out: LP-284 IC50
Method: as §1

Molecule `CC1=C(CN(O)C(N)=O)C2=C(C)C3(CC3)[C@@](C)(O)C(=O)C2=C1` [LP-284, hydroxyureamethyl acylfulvene] has an IC50 (SR) of 896 nM, an IC50 (CCRFCEM) of 2220 nM and an IC50 (HL60TB) of 952 nM. The IC50 (RPMI8226) was 348 nM, the IC50 (MOLT4) was 9.02 µM and the IC50 (SUDHL6) was 449 nM. It also gave an IC50 (U937) of 660 nM, an IC50 (REC1) of 794 nM and an IC50 (JEKO1) of 263 nM. The IC50 (K562R) was 295 nM, the IC50 (SUPB15) was 588 nM and the IC50 (THP1) was 1500 nM. The IC50 (MINO) was 88 nM, the IC50 (REH) was 114 nM and the IC50 (AML193) was 1800 nM. It also gave an IC50 (Z138) of 370 nM, an IC50 (JVM2) of 343 nM and an IC50 (KU812) of 488 nM. It also gave an IC50 (MAVER1) of 193 nM, an IC50 (CA46) of 431 nM and an IC50 (NCIH929) of 334 nM. It also gave an IC50 (K562) of 298 nM.
